Reference: US20230391881A1, “COMPOSITIONS AND METHODS FOR OVERCOMING DR5-INDUCED IMMUNE EVASION BY SOLID TUMORS” (University of Virginia Patent Foundation, priority 2020, published 2023)

How the values were obtained:
Type in all cases: in vivo, mouse
4T1 tumors = experiment: Tumor regression in 4T1 syngeneic TNBC tumor models; conditions: antibodies i.p., similar dose (FIGS. 6I and 6J)
Protocol: FIGS. 4A-4K. DR5 agonist activated ROCK1 functions to help PD-L1 surface mobilization. (FIGS. 4A and 4B) KMTR2 and lexatumumab treated MDA-MB-436 and OVCAR3 (respectively) lysates for indicated early time points were analyzed for caspase-8, caspase-3, ROCK1, pMLC, PARP, PD-L1 and CMTM6 etc. as indicated. Vertical arrows indicate sequential kinetics of caspase-8, ROCK1, and caspase-3 activation, arrows with “n.s.” below them indicate nonspecific band by ROCK1 antibody. (FIG. 4C) OVCAR3 cells were treated with pMLC activating ionophore A23187 (positive control) and lexatumumab ±ROCK1 inhibitors or ±rDR5 or ±rFOLR1. Lysates were later analyzed for ROCK1, pMLC, caspase-3 and PARP with GAPDH as loading control. (FIG. 4D) MDA-MB-436 and OVCAR3 cells were treated with indicated ROCK1 inhibitors 2 hours prior to DR5 agonist KMTR2 treatment. After 4 hours flow cytometry was used to analyze surface PD-L1. […] Relative luciferase signal was quantified and plotted after subtraction of background signal from untreated cells. […] Tumor volumes were quantified at indicated days by caliper measurements. […] Statistical significance in FIG. 4J was determined by unpaired student t-test and in FIG. 4K using two-tailed […] Wilcoxon Mann-Whitney test. […]
FIGS. 6A-6M. […] CD8/CD45 and CD4/CD45 expressing cells were measured by flow cytometry. […] Harvested tumors homogenized followed by quantitation. […]

[1] = tested on: chi-G4S-DR5 stable 4T1 tumors; experiment: Immunoblotting of Chi-G4S-DR5 stable 4T1 tumor lysates (granzyme-b, Foxp3); conditions: size matched tumors, 6 total doses (FIG. 6D)
[2] = tested on: chi-G4S-DR5 stable MC38 tumors; experiment: Immunoblotting of Chi-G4S-DR5 stable MC38 tumor lysates (granzyme-b); conditions: size matched tumors, 6 total doses (FIG. 18A)

## avelumab: clinical anti-PD-L1 antibody (human/mouse cross-reactive); VL and VH SEQ ID NOs: 9 and 10
4T1 tumors
  tumor regression: only stabilized the tumors
[1]
  granzyme-b activity in tumors compared to DR5 agonist alone: significantly higher granzyme-b activity
[2]
  granzyme-b activity in tumors compared to DR5 agonist alone: significantly higher granzyme-b activity
